From paper PMC3914206 come the findings set out here.

The structures appear in SMILES notation.

Holding throughout (type): binding
What all share (details): Compound Concentration 10 µM

The target in assay [1] is T1, panel of 442 kinases (Homo sapiens, UniProt Q96GD4).
T1 construct: purchased KINOMEscan
From the text:
(§1) We assessed the selectivity of members of this scaffold using the KINOMEscan methodology across a near comprehensive panel of 442 kinases [[18,27]].

For assay [2], the target named is T2, panel of 442 kinases (Homo sapiens, UniProt P45985).
T2 construct: purchased KINOMEscan
T2 sequence (P45985 1-399): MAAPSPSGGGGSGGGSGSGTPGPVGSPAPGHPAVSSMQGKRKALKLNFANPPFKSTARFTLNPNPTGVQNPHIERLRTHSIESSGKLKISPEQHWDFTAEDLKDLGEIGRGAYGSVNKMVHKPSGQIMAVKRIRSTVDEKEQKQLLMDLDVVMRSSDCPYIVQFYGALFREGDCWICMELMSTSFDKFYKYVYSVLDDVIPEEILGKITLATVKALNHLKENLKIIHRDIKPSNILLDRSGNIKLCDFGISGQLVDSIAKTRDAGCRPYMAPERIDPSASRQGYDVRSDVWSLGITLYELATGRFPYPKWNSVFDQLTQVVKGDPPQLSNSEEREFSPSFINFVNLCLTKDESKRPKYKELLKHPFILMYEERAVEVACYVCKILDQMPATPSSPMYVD
Text: as §1

For assay [3], the target named is T3, panel of 442 kinases (Homo sapiens, UniProt P42336, E545A).
T3 construct: purchased KINOMEscan
Text: as §1

T3 sequence (P42336 whole entry E545A): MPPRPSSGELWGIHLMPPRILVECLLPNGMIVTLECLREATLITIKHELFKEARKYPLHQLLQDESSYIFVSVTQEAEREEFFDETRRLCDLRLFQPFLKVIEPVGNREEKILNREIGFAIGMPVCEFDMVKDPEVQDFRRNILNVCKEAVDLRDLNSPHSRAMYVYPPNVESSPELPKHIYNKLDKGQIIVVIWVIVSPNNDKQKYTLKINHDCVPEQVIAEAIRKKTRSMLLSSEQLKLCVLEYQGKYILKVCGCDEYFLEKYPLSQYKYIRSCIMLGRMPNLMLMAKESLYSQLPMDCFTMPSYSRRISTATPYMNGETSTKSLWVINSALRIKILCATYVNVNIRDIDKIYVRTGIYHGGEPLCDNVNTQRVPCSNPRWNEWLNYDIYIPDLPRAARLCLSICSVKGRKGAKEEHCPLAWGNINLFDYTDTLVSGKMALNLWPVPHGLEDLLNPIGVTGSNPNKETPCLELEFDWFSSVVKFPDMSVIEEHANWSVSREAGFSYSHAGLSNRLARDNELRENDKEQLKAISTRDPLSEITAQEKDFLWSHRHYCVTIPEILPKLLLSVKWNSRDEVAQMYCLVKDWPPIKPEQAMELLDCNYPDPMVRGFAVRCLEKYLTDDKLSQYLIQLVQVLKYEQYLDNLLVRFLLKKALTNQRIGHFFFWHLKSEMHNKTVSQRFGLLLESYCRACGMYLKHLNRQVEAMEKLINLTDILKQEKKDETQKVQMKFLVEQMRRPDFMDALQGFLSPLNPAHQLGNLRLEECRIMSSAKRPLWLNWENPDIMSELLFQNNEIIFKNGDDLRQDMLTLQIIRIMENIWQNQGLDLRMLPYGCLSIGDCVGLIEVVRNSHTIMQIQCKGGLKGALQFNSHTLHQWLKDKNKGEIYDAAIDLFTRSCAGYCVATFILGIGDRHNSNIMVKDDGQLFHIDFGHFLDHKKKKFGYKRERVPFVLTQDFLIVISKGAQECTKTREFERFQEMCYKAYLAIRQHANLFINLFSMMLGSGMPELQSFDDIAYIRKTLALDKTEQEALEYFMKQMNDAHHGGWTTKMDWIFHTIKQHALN
T1 sequence (Q96GD4 whole entry): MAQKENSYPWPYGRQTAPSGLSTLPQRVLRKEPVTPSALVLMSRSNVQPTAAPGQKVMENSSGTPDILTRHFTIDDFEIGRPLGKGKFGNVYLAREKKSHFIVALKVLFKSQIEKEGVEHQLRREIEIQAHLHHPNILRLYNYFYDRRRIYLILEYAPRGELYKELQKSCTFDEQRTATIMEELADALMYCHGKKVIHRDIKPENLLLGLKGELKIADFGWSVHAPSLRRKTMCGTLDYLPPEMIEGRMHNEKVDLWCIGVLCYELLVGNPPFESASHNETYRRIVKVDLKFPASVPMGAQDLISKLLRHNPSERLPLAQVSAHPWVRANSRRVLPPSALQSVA

In the case of `CCOc1cc(C(=O)N2CCC(N3CCN(C)CC3)CC2)ccc1Nc1ncc2c(n1)N(C1CCCC1)c1ccccc1C(=O)N2C` [Compound 26], the “KINOMEscan: AURKB” value at panel of 442 kinases [1] is reported as 100. In addition, the “KINOMEscan: MEK4” value on panel of 442 kinases [2] is 100. Moreover, the “KINOMEscan: PIK3CA(E545A)” value at panel of 442 kinases [3] worked out at 91.

`COc1cc(C(=O)N2CCC(N3CCN(C)CC3)CC2)ccc1Nc1ncc2c(n1)N1CCc3cccc(c31)C(=O)N2C` [Compound 24]: on panel of 442 kinases [3], the “KINOMEscan: PIK3CA(E545A)” value was 68.

On to `COc1cc(C(=O)N2CCC(N3CCN(C)CC3)CC2)ccc1Nc1ncc2c(n1)N(C)c1ccccc1C(=O)N2C` [15 (LRRK2-IN-1)], for which, on panel of 442 kinases [1], the “KINOMEscan: AURKB” value is 38. Also, at panel of 442 kinases [2], the “KINOMEscan: MEK4” value is reported as 100. The “KINOMEscan: PIK3CA(E545A)” value at panel of 442 kinases [3] came out at 98.

For the compound `COc1cc(C(=O)N2CCC(N3CCN(C)CC3)CC2)ccc1Nc1ncc2c(n1)N(C1CCCC1)c1ccccc1C(=O)N2C` [Compound 25, 11-cyclopentyl-2-((2-methoxy-4-(4-(4-methylpiperazin-1-yl)piperidine-1-carbonyl)phenyl)amino)-5-methyl-5H-benzo[e]pyrimido[5,4-b][1,4]diazepin-6(11H)-one], the “KINOMEscan: AURKB” value at panel of 442 kinases [1] is 60. At panel of 442 kinases [2], the “KINOMEscan: MEK4” value is 100. Also, on panel of 442 kinases [3], the “KINOMEscan: PIK3CA(E545A)” value was determined as 85.
